Results reported in ChEMBL document CHEMBL2406981, “Novel pyrazoline amidoxime and their 1,2,4-oxadiazole analogues: synthesis and pharmacological screening” (Bioorg Med Chem Lett, 2013).
≈ marks a conversion by molar mass, not a printed value.

Legend:
Aspergillus niger [1] = assay: Antimicrobial activity against Aspergillus niger MTCC 281; format: functional
Aspergillus flavus [2] = assay: Antimicrobial activity against Aspergillus flavus MTCC 873; format: functional
[3] = Antioxidant activity against ferric chloride-induced lipid peroxidation using egg lecithin at 0.01 ug/ml after 1 hr; format: functional
[4] = Antioxidant activity against ferric chloride-induced lipid peroxidation using egg lecithin at 2.5 ug/ml after 1 hr; format: functional
Klebsiella pneumoniae [5] = assay: Antimicrobial activity against Klebsiella pneumoniae MTCC 3384 at 50 ug/ml after 24 hrs by agar disc diffusion method; format: functional; conditions: MTCC 3384, 24 h, read-out: DIZ
Klebsiella pneumoniae [6] = assay: Antimicrobial activity against Klebsiella pneumoniae MTCC 3384; format: functional
[7] = Antioxidant activity against ferric chloride-induced lipid peroxidation using egg lecithin at 0.5 ug/ml after 1 hr; format: functional
Staphylococcus aureus [8] = assay: Antimicrobial activity against Staphylococcus aureus MTCC 96; format: functional
[9] = Antioxidant activity against ferric chloride-induced lipid peroxidation using egg lecithin at 0.75 ug/ml after 1 hr; format: functional
Aspergillus niger [10] = assay: Antimicrobial activity against Aspergillus niger MTCC 281 at 100 ug/ml after 24 hrs by agar disc diffusion method; format: functional; conditions: MTCC 281, 24 h, read-out: DIZ
[11] = system: Radical scavenging activity; assay: Antioxidant activity assessed as DPPH free radical scavenging activity at 100 ug/ml after 20 mins; format: functional
[12] = Antioxidant activity against ferric chloride-induced lipid peroxidation using egg lecithin at 10 ug/ml after 1 hr; format: functional
Aspergillus niger [13] = assay: Antimicrobial activity against Aspergillus niger MTCC 281 at 50 ug/ml after 24 hrs by agar disc diffusion method; format: functional; conditions: MTCC 281, 24 h, read-out: DIZ
Bacillus cereus [14] = assay: Antimicrobial activity against Bacillus cereus MTCC 8372 at 100 ug/ml after 24 hrs by agar disc diffusion method; format: functional; conditions: MTCC 8372, 24 h, read-out: DIZ
Bacillus cereus [15] = assay: Antimicrobial activity against Bacillus cereus MTCC 8372 at 50 ug/ml after 24 hrs by agar disc diffusion method; format: functional; conditions: MTCC 8372, 24 h, read-out: DIZ
Staphylococcus aureus [16] = assay: Antimicrobial activity against Staphylococcus aureus MTCC 96 at 100 ug/ml after 24 hrs by agar disc diffusion method; format: functional; conditions: MTCC 96, 24 h, read-out: DIZ
[17] = Antioxidant activity assessed as reducing power of ferric ion at 10 ug/ml after 20 mins; format: functional; design: scale not given: the % may be the effect or the level left
[18] = Antioxidant activity against ferric chloride-induced lipid peroxidation using egg lecithin at 0.05 ug/ml after 1 hr; format: functional
Escherichia coli [19] = assay: Antimicrobial activity against Escherichia coli MTCC 724 at 50 ug/ml after 24 hrs by agar disc diffusion method; format: functional; conditions: MTCC 724, 24 h, read-out: DIZ
[20] = Antioxidant activity against ferric chloride-induced lipid peroxidation using egg lecithin at 100 ug/ml after 1 hr; format: functional
Shigella flexneri [21] = assay: Antimicrobial activity against Shigella flexneri MTCC 1457; format: functional
Klebsiella pneumoniae [22] = assay: Antimicrobial activity against Klebsiella pneumoniae MTCC 3384 at 100 ug/ml after 24 hrs by agar disc diffusion method; format: functional; conditions: MTCC 3384, 24 h, read-out: DIZ
[23] = Antioxidant activity against ferric chloride-induced lipid peroxidation using egg lecithin at 5 ug/ml after 1 hr; format: functional
[24] = Antiinflammatory activity against heat-induced albumin denaturation at […] preincubated for 15 mins before heat induction by UV-vis spectrophotometer analysis; format: functional
[25] = Antioxidant activity against ferric chloride-induced lipid peroxidation using egg lecithin at 50 ug/ml after 1 hr; format: functional
[26] = Antioxidant activity assessed as reducing power of ferric ion at 100 ug/ml after 20 mins; format: functional; design: scale not given: the % may be the effect or the level left
[27] = system: Radical scavenging activity; assay: Antioxidant activity assessed as DPPH free radical scavenging activity at 10 ug/ml after 20 mins; format: functional
Escherichia coli [28] = assay: Antimicrobial activity against Escherichia coli MTCC 724 at 100 ug/ml after 24 hrs by agar disc diffusion method; format: functional; conditions: MTCC 724, 24 h, read-out: DIZ
Shigella flexneri [29] = assay: Antimicrobial activity against Shigella flexneri MTCC 1457 at 100 ug/ml after 24 hrs by agar disc diffusion method; format: functional; conditions: MTCC 1457, 24 h, read-out: DIZ
[30] = Antioxidant activity assessed as reducing power of ferric ion at 50 ug/ml after 20 mins; format: functional; design: scale not given: the % may be the effect or the level left
Aspergillus flavus [31] = assay: Antimicrobial activity against Aspergillus flavus MTCC 873 at 50 ug/ml after 24 hrs by agar disc diffusion method; format: functional; conditions: MTCC 873, 24 h, read-out: DIZ
Bacillus cereus [32] = assay: Antimicrobial activity against Bacillus cereus MTCC 8372; format: functional
Shigella flexneri [33] = assay: Antimicrobial activity against Shigella flexneri MTCC 1457 at 50 ug/ml after 24 hrs by agar disc diffusion method; format: functional; conditions: MTCC 1457, 24 h, read-out: DIZ
Escherichia coli [34] = assay: Antimicrobial activity against Escherichia coli MTCC 724; format: functional
[35] = Antioxidant activity against ferric chloride-induced lipid peroxidation using egg lecithin at 0.25 ug/ml after 1 hr; format: functional
Staphylococcus aureus [36] = assay: Antimicrobial activity against Staphylococcus aureus MTCC 96 at 50 ug/ml after 24 hrs by agar disc diffusion method; format: functional; conditions: MTCC 96, 24 h, read-out: DIZ
[37] = system: Radical scavenging activity; assay: Antioxidant activity assessed as DPPH free radical scavenging activity at 50 ug/ml after 20 mins; format: functional
Aspergillus flavus [38] = assay: Antimicrobial activity against Aspergillus flavus MTCC 873 at 100 ug/ml after 24 hrs by agar disc diffusion method; format: functional; conditions: MTCC 873, 24 h, read-out: DIZ
[39] = Antioxidant activity against ferric chloride-induced lipid peroxidation using egg lecithin at 1 ug/ml after 1 hr; format: functional
[40] = Antioxidant activity against ferric chloride-induced lipid peroxidation using egg lecithin at 0.1 ug/ml after 1 hr; format: functional
[41] = Ratio of vitamin-E to compound for ferric chloride-induced lipid peroxidation; format: physicochemical

Row | MIC (Aspergillus niger [1]) | MIC (Aspergillus flavus [2]) | MIC (Klebsiella pneumoniae [6]) | MIC (Staphylococcus aureus [8]) | MIC (Shigella flexneri [21]) | Structure (SMILES) | zone of inhibition at 50 µg/mL (Klebsiella pneumoniae [5]) | zone of inhibition at 100 µg/mL (Aspergillus niger [10]) | Activity [11] | inhibition [12] | zone of inhibition at 50 µg/mL (Aspergillus niger [13]) | zone of inhibition at 100 µg/mL (Bacillus cereus [14]) | zone of inhibition at 50 µg/mL (Bacillus cereus [15]) | zone of inhibition at 100 µg/mL (Staphylococcus aureus [16]) | Activity [17] | zone of inhibition at 50 µg/mL (Escherichia coli [19]) | inhibition [20] | zone of inhibition at 100 µg/mL (Klebsiella pneumoniae [22]) | inhibition [24] | inhibition [25] | Activity [26] | also measured
1 | 50 µg/mL (≈ 178 µM) | 30 µg/mL (≈ 107 µM) | 40 µg/mL (≈ 143 µM) | 40 µg/mL (≈ 143 µM) | 40 µg/mL (≈ 143 µM) | N/C(=N\O)C1CC(c2ccccc2)=NN1c1ccccc1 (configuration not stated) | 2 mm | 3 mm | 51% | 32% | 2 mm | 3 mm | 2 mm | 6 mm | 8% | 2 mm | 14% | 8 mm | 61.7% | 15% | 56% | inhibition [3]: 0.7%; inhibition [4]: 14.7%; inhibition [7]: 8.2%; inhibition [9]: 8.5%; inhibition [18]: 1.3%; inhibition [23]: 21%; Activity [27]: 16%; zone of inhibition at 100 µg/mL (Escherichia coli [28]): 7 mm; zone of inhibition at 100 µg/mL (Shigella flexneri [29]): 10 mm; Activity [30]: 12%; zone of inhibition at 50 µg/mL (Aspergillus flavus [31]): 4 mm; MIC (Bacillus cereus [32]): 50 µg/mL (≈ 178 µM); zone of inhibition at 50 µg/mL (Shigella flexneri [33]): 3 mm; MIC (Escherichia coli [34]): 50 µg/mL (≈ 178 µM); inhibition [35]: 8%; zone of inhibition at 50 µg/mL (Staphylococcus aureus [36]): 3 mm; Activity [37]: 28%; zone of inhibition at 100 µg/mL (Aspergillus flavus [38]): 4 mm; inhibition [39]: 9.5%; inhibition [40]: 8.4%
2 | 15 µg/mL (≈ 50.6 µM) | 35 µg/mL (≈ 118 µM) | 20 µg/mL (≈ 67.5 µM) | 50 µg/mL (≈ 169 µM) | 10 µg/mL (≈ 33.7 µM) | N/C(=N\O)C1CC(c2ccc(O)cc2)=NN1c1ccccc1 (configuration not stated) | 8 mm | 14 mm | 76% | 12% | 10 mm | 3 mm | 3 mm | 8 mm | 12% | 10 mm | 20% | 12 mm | 63.5% | 18% | 79% | Activity [27]: 24%; zone of inhibition at 100 µg/mL (Escherichia coli [28]): 16 mm; zone of inhibition at 100 µg/mL (Shigella flexneri [29]): 20 mm; Activity [30]: 34%; zone of inhibition at 50 µg/mL (Aspergillus flavus [31]): 5 mm; MIC (Bacillus cereus [32]): 40 µg/mL (≈ 135 µM); zone of inhibition at 50 µg/mL (Shigella flexneri [33]): 12 mm; MIC (Escherichia coli [34]): 15 µg/mL (≈ 50.6 µM); zone of inhibition at 50 µg/mL (Staphylococcus aureus [36]): 2 mm; Activity [37]: 41%; zone of inhibition at 100 µg/mL (Aspergillus flavus [38]): 12 mm; Ratio [41]: 3
